From patent US9296723B2, “NAMPT inhibitors” (AbbVie Inc., priority 2012, dated 2016)
pIC50: −log10 of the molar value.

Experiments:
NAMPT [1] = target: T1, NAMPT (Homo sapiens, UniProt P43490); experiment: TR-FRET Binding Assay of NAMPT with PRPP; conditions: 2 nM NAMPT, 2 nM probe, 200 µM PRPP and 2.5 mM ATP, equilibrated 16 hours
Outline: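 TR-FRET probe displacement with 2 nM NAMPT, 2 nM probe and 1 nM Tb-anti-His antibody in the presence of 200 µM PRPP and 2.5 mM ATP, 2% DMSO (all final). Equilibrated 16 hours before reading to permit possible enzymatic modification of compounds.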

NAMPT [2] = target: T1, NAMPT; experiment: Time-Resolved Fluorescence Resonance Energy Transfer (TR-FRET) Binding Assay of NAMPT; conditions: 6.8 nM NAMPT, 200 nM probe, equilibrated 3 hours, no substrates
Outline: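 Compound was mixed with enzyme, probe and antibody and equilibrated 3 h at room temperature. TR-FRET read at Ex 337 nm, Em 520/495 nm. Ratios were normalized to controls and fitted to a four-parameter logistic equation for IC50.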

PC3 cells = experiment: NAMPT Cell Proliferation Assay (Cell Titer Glo); assay type: cell-based; conditions: Homo sapiens, PC-3, 120 h, incubated 5 days, cell viability
Outline: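 PC3 cells (500/well, RPMI with 10% heat-inactivated FBS) were exposed to 10-fold compound dilutions from […] for 5 days at 37 °C, 5% CO2. Viability was read with Cell Titer Glo; IC50 from sigmoidal fit of percent inhibition.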

T1 sequence (P43490 whole entry): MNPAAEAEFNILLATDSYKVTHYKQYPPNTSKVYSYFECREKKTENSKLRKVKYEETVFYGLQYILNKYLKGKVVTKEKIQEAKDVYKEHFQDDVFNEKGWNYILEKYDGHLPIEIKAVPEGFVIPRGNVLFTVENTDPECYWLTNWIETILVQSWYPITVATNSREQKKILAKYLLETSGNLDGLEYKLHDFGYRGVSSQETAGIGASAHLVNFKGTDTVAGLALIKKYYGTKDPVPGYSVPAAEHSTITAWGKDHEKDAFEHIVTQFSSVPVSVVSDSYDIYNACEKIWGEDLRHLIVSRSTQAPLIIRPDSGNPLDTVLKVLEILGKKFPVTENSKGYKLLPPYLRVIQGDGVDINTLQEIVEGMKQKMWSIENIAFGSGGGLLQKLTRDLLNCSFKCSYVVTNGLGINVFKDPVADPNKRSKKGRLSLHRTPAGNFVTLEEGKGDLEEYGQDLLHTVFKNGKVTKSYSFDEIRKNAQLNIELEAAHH

Structure (SMILES)	pIC50 (NAMPT [1])	pIC50 (NAMPT [2])	pIC50 (PC3 cells)
CC(C)C(C)C(=O)N1CCC(c2ccc(NC(=O)N3CC(c4cccnc4)C3)cc2)CC1 (stereo not drawn) [Example 197, N-{4-[1-(2,3-dimethylbutanoyl)piperidin-4-yl]phenyl}-3-(pyridin-3-yl)azetidine-1-carboxamide]	9.30	7.75	7.64
CCCCC(=O)N1CC(c2ccc(NC(=O)N3CC(c4cccnc4)C3)cc2)C1 [Example 198, N-[4-(1-pentanoylazetidin-3-yl)phenyl]-3-(pyridin-3-yl)azetidine-1-carboxamide]	9.47	7.19	7.32
O=C(CC1C[C@@H]2CC[C@H]1C2)N1CC(c2ccc(NC(=O)N3CC(c4cccnc4)C3)cc2)C1 (stereo partly drawn) [Example 200, N-(4-{1-[(1S,4R)-bicyclo[2.2.1]hept-2-ylacetyl]azetidin-3-yl}phenyl)-3-(pyridin-3-yl)azetidine-1-carboxamide]	9.42	7.44	7.77
CCC(C)CC(=O)N1CC(c2ccc(NC(=O)N3CC(c4cccnc4)C3)cc2)C1 (stereo not drawn) [Example 202, N-{4-[1-(3-methylpentanoyl)azetidin-3-yl]phenyl}-3-(pyridin-3-yl)azetidine-1-carboxamide]	9.49	7.29	7.18
CCC(C)(C)C(=O)N1CC(c2ccc(NC(=O)N3CC(c4cccnc4)C3)cc2)C1 [Example 204, N-{4-[1-(2,2-dimethylbutanoyl)azetidin-3-yl]phenyl}-3-(pyridin-3-yl)azetidine-1-carboxamide]	9.46	7.31	7.22
CC(C)(C)C(=O)N1CC(c2ccc(NC(=O)N3CC(c4cccnc4)C3)cc2)C1 [Example 206, N-{4-[1-(2,2-dimethylpropanoyl)azetidin-3-yl]phenyl}-3-(pyridin-3-yl)azetidine-1-carboxamide]	9.59	7.31	7.20
CC(C)CC(=O)N1CC(c2ccc(NC(=O)N3CC(c4cccnc4)C3)cc2)C1 [Example 208, N-{4-[1-(3-methylbutanoyl)azetidin-3-yl]phenyl}-3-(pyridin-3-yl)azetidine-1-carboxamide]	9.33	7.31	7.13
COCCOCC(=O)N1CC(c2ccc(NC(=O)N3CC(c4cccnc4)C3)cc2)C1 [Example 210, N-(4-{1-[(2-methoxyethoxy)acetyl]azetidin-3-yl}phenyl)-3-(pyridin-3-yl)azetidine-1-carboxamide]	9.45	6.69	6.66
O=C(CC1CCCCC1)N1CC(c2ccc(NC(=O)N3CC(c4cccnc4)C3)cc2)C1 [Example 212, N-{4-[1-(cyclohexylacetyl)azetidin-3-yl]phenyl}-3-(pyridin-3-yl)azetidine-1-carboxamide]	9.33	7.39	7.69
O=C(Nc1ccc(C2CN(C(=O)C3CCCC3)C2)cc1)N1CC(c2cccnc2)C1 [Example 214, N-{4-[1-(cyclopentylcarbonyl)azetidin-3-yl]phenyl}-3-(pyridin-3-yl)azetidine-1-carboxamide]	9.54	7.12	7.36
O=C(Nc1ccc(C2CN(C(=O)c3ccoc3)C2)cc1)N1CC(c2cccnc2)C1 [Example 216, N-{4-[1-(furan-3-ylcarbonyl)azetidin-3-yl]phenyl}-3-(pyridin-3-yl)azetidine-1-carboxamide]	9.59	7.74	7.69
COCC(=O)N1CC(c2ccc(NC(=O)N3CC(c4cccnc4)C3)cc2)C1 [Example 218, N-{4-[1-(methoxyacetyl)azetidin-3-yl]phenyl}-3-(pyridin-3-yl)azetidine-1-carboxamide]	9.35	6.77	6.73
Cc1ccsc1C(=O)N1CC(c2ccc(NC(=O)N3CC(c4cccnc4)C3)cc2)C1 [Example 220, N-(4-{1-[(3-methylthiophen-2-yl)carbonyl]azetidin-3-yl}phenyl)-3-(pyridin-3-yl)azetidine-1-carboxamide]	9.47	7.98	8.38
O=C(Nc1ccc(C2CN(C(=O)c3cccs3)C2)cc1)N1CC(c2cccnc2)C1 [Example 222, 3-(pyridin-3-yl)-N-{4-[1-(thiophen-2-ylcarbonyl)azetidin-3-yl]phenyl}azetidine-1-carboxamide]	9.74	7.97	7.92
O=C(Nc1ccc(C2CN(C(=O)c3ccco3)C2)cc1)N1CC(c2cccnc2)C1 [Example 224, N-{4-[1-(furan-2-ylcarbonyl)azetidin-3-yl]phenyl}-3-(pyridin-3-yl)azetidine-1-carboxamide]	9.48	7.59	7.68
CCC(=O)N1CC(c2ccc(NC(=O)N3CC(c4cccnc4)C3)cc2)C1 [Example 226, N-[4-(1-propanoylazetidin-3-yl)phenyl]-3-(pyridin-3-yl)azetidine-1-carboxamide]	9.36	6.77	6.70
O=C(Nc1ccc(C2CCN(CC3CCCC3)CC2)cc1)N1CC(c2cccnc2)C1 [Example 231, N-{4-[1-(cyclopentylmethyl)piperidin-4-yl]phenyl}-3-(pyridin-3-yl)azetidine-1-carboxamide]	9.65	6.38	6.44
CC(C)(C)CCN1CCC(c2ccc(NC(=O)N3CC(c4cccnc4)C3)cc2)CC1 [Example 233, N-{4-[1-(3,3-dimethylbutyl)piperidin-4-yl]phenyl}-3-(pyridin-3-yl)azetidine-1-carboxamide]	9.47	6.19	6.01
CC(C)CN1CCC(c2ccc(NC(=O)N3CC(c4cccnc4)C3)cc2)CC1 [Example 235, N-{4-[1-(2-methylpropyl)piperidin-4-yl]phenyl}-3-(pyridin-3-yl)azetidine-1-carboxamide]	9.67	6.19	6.00
CCC(CC)CN1CCC(c2ccc(NC(=O)N3CC(c4cccnc4)C3)cc2)CC1 [Example 237, N-{4-[1-(2-ethylbutyl)piperidin-4-yl]phenyl}-3-(pyridin-3-yl)azetidine-1-carboxamide]	9.59	6.24	6.46
CC(C)(C)CN1CCC(c2ccc(NC(=O)N3CC(c4cccnc4)C3)cc2)CC1 [Example 238, N-{4-[1-(2,2-dimethylpropyl)piperidin-4-yl]phenyl}-3-(pyridin-3-yl)azetidine-1-carboxamide]	8.85	5.40	6.13
CCC(C)CN1CCC(c2ccc(NC(=O)N3CC(c4cccnc4)C3)cc2)CC1 (stereo not drawn) [Example 239, N-{4-[1-(2-methylbutyl)piperidin-4-yl]phenyl}-3-(pyridin-3-yl)azetidine-1-carboxamide]	9.70	5.77	5.82
CCCN1CCC(c2ccc(NC(=O)N3CC(c4cccnc4)C3)cc2)CC1 [Example 241, N-[4-(1-propylpiperidin-4-yl)phenyl]-3-(pyridin-3-yl)azetidine-1-carboxamide]	9.59	6.44	6.60
O=C(Nc1ccc(C2CCN(CC3CCOC3)CC2)cc1)N1CC(c2cccnc2)C1 (stereo not drawn) [Example 243, 3-(pyridin-3-yl)-N-{4-[1-(tetrahydrofuran-3-ylmethyl)piperidin-4-yl]phenyl}azetidine-1-carboxamide]	9.49	5.90	5.88
O=C(Nc1ccc(C2CN(CC3CCCCC3)C2)cc1)N1CC(c2cccnc2)C1 [Example 246, N-{4-[1-(cyclohexylmethyl)azetidin-3-yl]phenyl}-3-(pyridin-3-yl)azetidine-1-carboxamide]	9.67	6.36	6.21
CC(C)(C)CCN1CC(c2ccc(NC(=O)N3CC(c4cccnc4)C3)cc2)C1 [Example 247, N-{4-[1-(3,3-dimethylbutyl)azetidin-3-yl]phenyl}-3-(pyridin-3-yl)azetidine-1-carboxamide]	9.52	6.06	6.33
O=C(Nc1ccc(C2CN(CC3CC3)C2)cc1)N1CC(c2cccnc2)C1 [Example 248, N-{4-[1-(cyclopropylmethyl)azetidin-3-yl]phenyl}-3-(pyridin-3-yl)azetidine-1-carboxamide]	9.64	6.00	5.86
O=C(Nc1ccc(C2CN(CC3CCCO3)C2)cc1)N1CC(c2cccnc2)C1 (stereo not drawn) [Example 250, 3-(pyridin-3-yl)-N-{4-[1-(tetrahydrofuran-2-ylmethyl)azetidin-3-yl]phenyl}azetidine-1-carboxamide]	9.17	6.06	6.18
CC(C)CN1CC(c2ccc(NC(=O)N3CC(c4cccnc4)C3)cc2)C1 [Example 251, N-{4-[1-(2-methylpropyl)azetidin-3-yl]phenyl}-3-(pyridin-3-yl)azetidine-1-carboxamide]	9.44	6.42	6.67
CC(C)CCN1CC(c2ccc(NC(=O)N3CC(c4cccnc4)C3)cc2)C1 [Example 252, N-{4-[1-(3-methylbutyl)azetidin-3-yl]phenyl}-3-(pyridin-3-yl)azetidine-1-carboxamide]	9.53	6.28	6.40
